One compound from patent publication US20230120597A1, “CO-AGONISTS AT GLP-1 AND GIP RECEPTORS SUITABLE FOR ORAL DELIVERY” (Novo Nordisk A/S, priority 2020, published 2023) can be followed below.

Data set [1] deals with T1, human GLP-1 receptor (Homo sapiens, UniProt P43220).
T1 construct: expressed in transfected cells; host or cells: BHK (parent line BHKTS13), clone BHK CRE luc2P hGLP-1R
Briefly: In vitro functional potency, CRE luciferase reporter gene assay, whole BHK cells expressing hGLP-1R. It is filed as cell-based. The following applies: BHK CRE luc2P hGLP-1R cells.

The nature of data set [2]: Pharmacokinetic study in dogs, oral dosing of tablet compositions with SNAC. It is filed as in vivo, Beagle dogs. The following applies: male, beagle, dog, in vivo, po. An outline of the steps: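 The tablets held 3-4 mg compound plus 100-300 mg SNAC and were given to fasted male beagles (6-8 per group); non-compartmental PK per animal.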

Molecules are shown by their SMILES. Read-outs that look alike come from different tables or passages of the source. Starred links: 1 amine or outer side, 2 acyl side, 3 side chain; linkers in the order of their positions; H or OH if unused. Non-standard residues stand in square brackets, D forms with d. Residues, ends and D or L forms follow the SMILES beside them. Groups on a side chain read outwards from the residue. *: point of attachment. C18 diacid = O=C(O)CCCCCCCCCCCCCCCCC(=O)*; γGlu = O=C(O)[C@H](CCC(=O)[*:2])N[*:1]; εLys = N[C@@H](CCCCN[*:1])C(=O)[*:2]; Aib = CC(C)(N)C(=O)O

T1 sequence (P43220 24-463): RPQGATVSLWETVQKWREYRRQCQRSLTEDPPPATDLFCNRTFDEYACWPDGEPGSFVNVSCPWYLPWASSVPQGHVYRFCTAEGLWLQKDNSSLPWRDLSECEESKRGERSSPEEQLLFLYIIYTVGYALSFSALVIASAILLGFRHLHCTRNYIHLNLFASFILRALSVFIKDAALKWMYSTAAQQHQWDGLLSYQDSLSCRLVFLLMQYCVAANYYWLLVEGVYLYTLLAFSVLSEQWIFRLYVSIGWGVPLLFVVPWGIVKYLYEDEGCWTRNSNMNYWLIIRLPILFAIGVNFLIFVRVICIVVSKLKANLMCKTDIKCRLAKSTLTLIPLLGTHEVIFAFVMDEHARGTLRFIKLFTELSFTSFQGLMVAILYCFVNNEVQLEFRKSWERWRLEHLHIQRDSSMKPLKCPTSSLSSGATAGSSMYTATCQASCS

As to `CC[C@H](C)[C@H](NC(=O)[C@H](Cc1ccccc1)NC(=O)[C@H](CCC(=O)O)NC(=O)[C@H](CCCNC(=N)N)NC(=O)[C@H](C)NC(=O)[C@H](C)NC(=O)[C@H](CCC(N)=O)NC(=O)[C@H](CCCCNC(=O)[C@@H](N)CCCCNC(=O)[C@@H](N)CCCCNC(=O)CC[C@H](NC(=O)CCCCCCCCCCCCCCCCC(=O)O)C(=O)O)NC(=O)[C@H](CCC(=O)O)NC(=O)[C@H](CC(C)C)NC(=O)[C@H](CC(C)C)NC(=O)[C@@H](NC(=O)[C@H](CO)NC(=O)[C@H](Cc1ccc(O)cc1)NC(=O)[C@H](CC(=O)O)NC(=O)[C@H](CO)NC(=O)[C@@H](NC(=O)[C@H](Cc1ccccc1)NC(=O)[C@@H](NC(=O)CNC(=O)[C@H](CCC(=O)O)NC(=O)C(C)(C)NC(=O)[C@@H](N)Cc1ccc(O)cc1)[C@@H](C)O)[C@@H](C)O)[C@@H](C)CC)C(=O)N[C@@H](CC(N)=O)C(=O)N[C@@H](Cc1c[nH]c2ccccc12)C(=O)N[C@@H](CC(C)C)C(=O)N[C@@H](CC(C)C)C(=O)N[C@@H](C)C(=O)NCC(=O)NCC(=O)N1CCC[C@H]1C(=O)N[C@@H](CO)C(=O)N[C@@H](CO)C(=O)NCC(=O)N[C@@H](C)C(=O)N1CCC[C@H]1C(=O)N1CCC[C@H]1C(=O)N1CCC[C@H]1C(=O)N[C@@H](CO)C(=O)O` [Compound No. 15] (H-Y[Aib]EGTFTSDYSILLEK([εLys-εLys-γGlu-C18 diacid])QAAREFINWLLAGGPSSGAPPPS-OH), the concentration giving a half-maximal response (EC50) in data set [1] (0% HSA, read-out: hGLP-1R, CRE Luc 0% HSA EC50) was determined as 0.005 nM; in data set [1] (hGLP-1R, CRE Luc 1% HSA EC50, 1% HSA) it was 0.13 nM. Besides, the time of peak concentration (Tmax) in data set [2] (Tmax) came to 1.5 h. In data set [2] (t1/2), the half-life is 59 h.

One may read the EC50 as the concentration at which the effect is half-maximal. The term Tmax denotes the time at which the peak concentration occurs. Usually half-life stands for the time in which the quantity being followed falls by half. Low readings indicate rapid decline, high ones slow decline.
